Patent US11046672B2, “Indolinones compounds and their use in the treatment of fibrotic diseases” (RESPIVERT LIMITED, priority 2015, dated 2021)
Where two headings read alike, the source gives them in different places.

Key:
MRC5 cells = assay: Cell viability assay in MRC5 cells (MTT)
PDGFRβ [1] = target: T1, PDGFRβ (Homo sapiens (Human), UniProt P09619); assay: PDGF-BB induced phosphorylation of PDGFRβ in fibroblasts (MRC5 cells, HTRF); assay type: cell-based
PDGFRβ [2] = target: T1, PDGFRβ; conditions: read-out: Ki PDGFRβ
PAMPA permeability assay = assay type: in vitro ADME; conditions: PAMPA; for recovery at 5 hr, 10 μM: pH 7, PAMPA, donor and acceptor compartments; for Papp at 5 h, 10 μM: pH 7, pH 7, 10 μM
[3] = MRC5 cells, n = 1 unless otherwise indicated, read-out: PDGFBB-induced PDGFRβ phosphorylation in MRC5 cells (IC50)
[4] = mean, n = 2 unless otherwise indicated

T1 sequence (P09619 33-1106): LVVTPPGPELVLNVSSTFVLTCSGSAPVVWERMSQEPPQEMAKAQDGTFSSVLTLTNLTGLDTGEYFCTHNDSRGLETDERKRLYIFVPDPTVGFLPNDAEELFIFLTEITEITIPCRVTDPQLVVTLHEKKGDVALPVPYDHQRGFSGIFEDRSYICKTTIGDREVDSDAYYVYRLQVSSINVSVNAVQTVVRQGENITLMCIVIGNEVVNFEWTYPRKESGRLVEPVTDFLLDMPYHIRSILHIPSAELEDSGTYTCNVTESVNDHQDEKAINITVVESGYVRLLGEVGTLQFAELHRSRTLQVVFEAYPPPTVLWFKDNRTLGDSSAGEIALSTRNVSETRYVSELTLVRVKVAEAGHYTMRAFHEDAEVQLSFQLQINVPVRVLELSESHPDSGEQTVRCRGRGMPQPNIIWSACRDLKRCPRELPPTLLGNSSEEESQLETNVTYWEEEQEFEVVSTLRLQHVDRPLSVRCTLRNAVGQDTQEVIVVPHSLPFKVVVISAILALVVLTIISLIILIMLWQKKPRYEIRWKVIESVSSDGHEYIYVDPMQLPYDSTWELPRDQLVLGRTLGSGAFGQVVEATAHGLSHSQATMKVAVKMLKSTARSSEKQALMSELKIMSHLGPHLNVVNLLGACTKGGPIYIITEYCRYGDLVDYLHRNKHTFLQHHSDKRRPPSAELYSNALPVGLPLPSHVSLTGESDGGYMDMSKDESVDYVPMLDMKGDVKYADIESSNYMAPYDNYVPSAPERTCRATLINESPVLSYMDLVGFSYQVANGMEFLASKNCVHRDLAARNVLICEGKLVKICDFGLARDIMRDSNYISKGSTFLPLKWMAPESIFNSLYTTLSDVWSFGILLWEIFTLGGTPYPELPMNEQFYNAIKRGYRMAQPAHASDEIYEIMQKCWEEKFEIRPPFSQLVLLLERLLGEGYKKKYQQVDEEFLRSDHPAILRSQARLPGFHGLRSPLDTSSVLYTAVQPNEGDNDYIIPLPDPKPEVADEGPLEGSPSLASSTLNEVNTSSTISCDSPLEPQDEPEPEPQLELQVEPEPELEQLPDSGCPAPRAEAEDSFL

Structure (SMILES) | Cell viability at 100 nM (%) (MRC5 cells) | Cell viability at 300 nM (%) (MRC5 cells) | Cell viability at 1000 nM (%) (MRC5 cells) | IC50 (PDGFRβ [1]; [3]) | Ki (PDGFRβ [2]; [4]) | recovery at 5 hr, 10 μM (PAMPA permeability assay) | Papp at 5 h, 10 μM (PAMPA permeability assay) | IC50 (PDGFRβ [1]) | Ki (PDGFRβ [2])
COC(=O)c1cc2c(cc1C)/C(=C(/Nc1ccc(C(=O)N(OC)C3CCN(C)CC3)c(C)c1)c1ccccc1)C(=O)N2 [Example 34] | 114.8% | 80% | 61.5% | 13.4 nM | 15.8 nM | – | – | – | –
COC(=O)c1ccc2c(c1)NC(=O)/C2=C(\Nc1ccc(C(=O)NOCCN2CCNC(=O)C2)cc1)c1ccccc1 [Example 42] | 114.5% | 109.6% | 118.3% | 56.3 nM | 7.06 nM | 76.8% | 0.0264 ×10⁻⁶ cm/s | – | –
COC(=O)c1cc2c(cc1C)/C(=C(/Nc1ccc(C(=O)NOCCN3CCC(C#N)CC3)cc1)c1ccccc1)C(=O)N2 [Example 63] | 99% | 116.9% | 12.1% | 4.74 nM | 15.7 nM | – | – | – | –
COC(=O)c1cc2c(cc1C)/C(=C(/Nc1ccc(C(=O)NOC3CCN(C)CC3)c(C)c1)c1ccccc1)C(=O)N2 [Example 31] | 111.7% | 97.3% | 95.7% | 7.72 nM | 6.58 nM | – | – | – | –
COC(=O)c1ccc2c(c1)NC(=O)/C2=C(\Nc1ccc(C(=O)NOCCN(C)CCO)cc1)c1ccccc1 [Example 45] | 98.9% | 104.7% | 80.7% | 27.2 nM | 14.1 nM | – | – | – | –
COC(=O)c1ccc2c(c1)NC(=O)/C2=C(\Nc1ccc(C(=O)N(OC)C2CCN(C)CC2)cc1)c1ccccc1 [Example 21] | 95.5% | 86.6% | 53% | 6.79 nM | 10.2 nM | – | – | – | –
COC(=O)c1cc2c(cc1C)/C(=C(/Nc1ccc(C(=O)NOCCN3CCC(OC)CC3)cc1)c1ccccc1)C(=O)N2 [Example 52] | 62% | 50.9% | 59.8% | 21.8 nM | 17 nM | 76.2% | 0.279 ×10⁻⁶ cm/s | – | –
COC(=O)c1ccc2c(c1)NC(=O)/C2=C(\Nc1ccc(C(=O)NOCCN2[C@H](C)CCC[C@@H]2C)cc1)c1ccccc1 [Example 44] | 103% | 105.9% | 109.8% | 73.9 nM | 103 nM | – | – | – | –
COC(=O)c1ccc2c(c1)NC(=O)/C2=C(\Nc1ccc(C(=O)NOCCN2CCC(O)CC2)cc1)c1ccccc1 [Example 40] | 103.8% | 103.8% | 110.5% | 29.2 nM | 7.66 nM | 75% | 0.00954 ×10⁻⁶ cm/s | – | –
COC(=O)c1ccc2c(c1)NC(=O)/C2=C(\Nc1ccc(C(=O)NOCCN2CCC(C#N)CC2)cc1)c1ccccc1 [Example 43] | 96.5% | 91.8% | 83.9% | 25.7 nM | 32.4 nM | 75.3% | 0.00798 ×10⁻⁶ cm/s | – | –
COC(=O)c1cc2c(cc1C)/C(=C(/Nc1ccc(C(=O)N(C)OCCN3CC4CC(C3)N4)cc1)c1ccccc1)C(=O)N2 [Example 66] | 102.8% | 92.9% | 53.8% | 15.5 nM | 16 nM | – | – | – | –
COC(=O)c1cc2c(cc1C)/C(=C(/Nc1ccc(C(=O)NOCCN3CCC(O)CC3)cc1)c1ccccc1)C(=O)N2 [Example 54] | 101% | 99.8% | 92.9% | 34.1 nM | 18.1 nM | – | – | – | –
COC(=O)c1cc2c(cc1C)/C(=C(/Nc1ccc(S(=O)(=O)NOCCN3CCN(C)CC3)cc1)c1ccccc1)C(=O)N2 [Example 2, (Z)-Methyl 5-methyl-3-(((4-(N-(2-(4-methylpiperazin-1-yl)ethoxy)sulfamoyl)phenyl)amino)(phenyl)methylene)-2-oxoindoline-6-carboxylate] | 124.5% | 104.4% | 101.2% | 39.6 nM | 19.2 nM | 54.1% | 0.0261 ×10⁻⁶ cm/s | – | –
COC(=O)c1cc2c(cc1C)/C(=C(/Nc1ccc(S(=O)(=O)N(C)OCCN(C)CCO)cc1)c1ccccc1)C(=O)N2 [Example 10, (Z)-Methyl 3-(((4-(N-(2-((2-hydroxyethyl)(methyl)amino)ethoxy)-N-methylsulfamoyl)phenyl)amino)(phenyl)methylene)-5-methyl-2-oxoindoline-6-carboxylate] | 105.9% | 100.9% | 42% | – | – | 92.6% | 24.8 ×10⁻⁶ cm/s | 13.6 nM | 17.4 nM
COC(=O)c1ccc2c(c1)NC(=O)/C2=C(\Nc1ccc(C(=O)NOCCN2CCCCC2)cc1)c1ccccc1 [Example 8, (Z)-Methyl 2-oxo-3-(phenyl((4-((2-(piperidin-1-yl)ethoxy)carbamoyl)phenyl)amino)methylene)indoline-6-carboxylate] | 93.4% | 95.7% | 91% | 21.5 nM | 27.8 nM | – | – | – | –
COCCN1CCN(CCONC(=O)c2ccc(N/C(=C3\C(=O)Nc4cc(C(=O)OC)ccc43)c3ccccc3)cc2)CC1 [Example 46] | 120.7% | 109.5% | 86.3% | 31.7 nM | 28.1 nM | – | – | – | –
COC(=O)c1ccc2c(c1)NC(=O)/C2=C(\Nc1ccc(C(=O)N(C)OCCN(C)C)c(C)c1)c1ccccc1 [Example 22] | 102% | 74.1% | 39.2% | 6.68 nM | 10 nM | – | – | – | –
CNC(=O)CN1CCN(CCON(C)C(=O)c2ccc(N/C(=C3\C(=O)Nc4cc(C(=O)OC)c(C)cc43)c3ccccc3)cc2)CC1 [Example 9, (Z)-Methyl 5-methyl-3-(((4-(methyl(2-(4-(2-(methylamino)-2-oxoethyl)piperazin-1-yl)ethoxy)carbamoyl)phenyl)amino)(phenyl)methylene)-2-oxoindoline-6-carboxylate] | 129.9% | 96.3% | 88.6% | 8.45 nM | – | 82.9% | 0.0761 ×10⁻⁶ cm/s | – | –
COC(=O)c1cc2c(cc1C)/C(=C(/Nc1ccc(C(=O)NOCCCN3CCCCC3)cc1)c1ccccc1)C(=O)N2 [Example 53] | 124.2% | 96.8% | 97.8% | 43.8 nM | 20.3 nM | – | – | – | –
COC(=O)c1ccc2c(c1)NC(=O)/C2=C(\Nc1ccc(C(=O)NOCCN2CCN(CCO)CC2)cc1)c1ccccc1 [Example 39] | 89.9% | 90.1% | 90.8% | 33.8 nM | 5.39 nM | – | – | – | –
COC(=O)c1ccc2c(c1)NC(=O)/C2=C(\Nc1ccc(C(=O)N2CCO2)cc1)c1ccccc1 [Example 37] | 95.2% | 98.9% | 106% | 24.1 nM | 244 nM | – | – | – | –
COC(=O)c1cc2c(cc1C)/C(=C(/Nc1ccc(C(=O)N(OC)C3CCN(C)CC3)cc1)c1ccccc1)C(=O)N2 [Example 35] | 92.9% | 77.2% | 75.7% | 26.9 nM | 22.1 nM | – | – | – | –
COC(=O)c1ccc2c(c1)NC(=O)/C2=C(\Nc1ccc(C(=O)NOCCN2CCC(N(C)C)CC2)cc1)c1ccccc1 [Example 47] | 112% | 102.4% | 93% | 39 nM | 10.2 nM | – | – | – | –
